Test results taken from patent US20260022103A1, “PRAMIPEXOLE XINAFOATE AND SUSTAINED-RELEASE PHARMACEUTICAL FORMULATION THEREOF” (JEWIM PHARMACEUTICAL (SHANDONG) CO., LTD., priority 2022, published 2026).
Where a name gives a salt, the structure may show the parent alone. Read-outs that look alike come from different tables or passages of the source.

Experiments:
dopamine D2 receptor = dopamine D2 receptor (Homo sapiens, UniProt P14416); conditions: cited from earlier work
[1] = for Saturation concentration: 48 h
Protocol: The concentrations of the pramipexole salts in different media for saturation at 48 h were determined by a shake flask dissolution method at 37° C.

[2] = Pharmacokinetics of different pramipexole salt suspension injections in rats; type: in vivo; conditions: subcutaneous suspension injection
Protocol: 18 adult rats, including 12 males and 6 females (non-perilactation period), were selected and divided into three groups with 6 rats each group (a ratio of males to females of 2:1), and subcutaneously administered with 2 ml of the suspension injections of Examples 3-5 respectively. The main pharmacokinetic parameters of each of test animals were determined: the time to peak, the maximal blood drug level and AUC0-t.

[3] = Phosphate buffer at pH 6.8, 37° C.
[4] = Phosphate buffer at pH 7.4, 37° C.

dopamine D2 receptor, sequence (P14416 whole entry, species assumed): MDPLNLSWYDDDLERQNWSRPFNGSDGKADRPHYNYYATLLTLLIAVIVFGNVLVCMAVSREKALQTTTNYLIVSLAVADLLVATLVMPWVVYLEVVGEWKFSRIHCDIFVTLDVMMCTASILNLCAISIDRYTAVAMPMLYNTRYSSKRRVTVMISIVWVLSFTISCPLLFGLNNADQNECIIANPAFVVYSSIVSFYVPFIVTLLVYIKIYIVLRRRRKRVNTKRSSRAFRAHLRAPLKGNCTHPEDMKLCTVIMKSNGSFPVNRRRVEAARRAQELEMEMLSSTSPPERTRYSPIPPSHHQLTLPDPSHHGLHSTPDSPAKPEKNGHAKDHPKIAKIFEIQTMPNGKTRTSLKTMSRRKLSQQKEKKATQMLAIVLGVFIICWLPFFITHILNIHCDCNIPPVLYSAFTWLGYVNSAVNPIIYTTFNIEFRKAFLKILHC

Row | Molecule | Saturation concentration ([1]; 0.9% NaCl, 37° C.) | Saturation concentration [1, 3] | Saturation concentration [1, 4] | Saturation concentration ([1]; Water for injection, 37° C.) | also measured
1 | CCCN[C@H]1CCc2nc(N)sc2C1 [S(−) isomer, (S)-(−)-2-amino-6-(propylamino)-4,5,6,7-tetrahydrobenzothiazole] |  |  |  |  | Affinity to dopamine D2 receptor relative to the R(+) isomer (dopamine D2 receptor; ratio versus R(+) isomer): 8-10 times; Affinity to dopamine D2 receptor relative to the racemate (dopamine D2 receptor; ratio versus racemate): 2 times
2 | CCCN[C@H]1CCc2nc(N)sc2C1.O=C(O)c1ccccc1 [pramipexole benzoate] | 325.91 µg/mL | 392.11 µg/mL | 427.37 µg/mL | 292.72 µg/mL | 
3 | CCCN[C@H]1CCc2nc(N)sc2C1 [pramipexole hydrochloride, Pramipexole hydrochloride] |  |  |  |  | Saturation concentration ([1]; 0.9% NaCl, 37° C., hydrochloride): 1207.41 µg/mL; Saturation concentration ([1]; Phosphate buffer at pH 6.8, 37° C., hydrochloride): 1249.45 µg/mL; Saturation concentration ([1]; Phosphate buffer at pH 7.4, 37° C., hydrochloride): 1363.53 µg/mL; Saturation concentration ([1]; Water for injection, 37° C., hydrochloride): 1187.36 µg/mL
4 | CCCN[C@H]1CCc2nc(N)sc2C1 [pramipexole xinafoate] | 1.05 µg/mL | 2.64 µg/mL | 4.66 µg/mL | 0.78 µg/mL | Solubility compared with the other salts ([1]; summary of Table 1): significantly decreased; Duration of sustained release [2]: up to 35 days
5 | pramipexole pamoate | 227.63 µg/mL | 275.34 µg/mL | 345.29 µg/mL | 189.25 µg/mL | 
